# Measurements: patent US20260001928A1 (CORTERIA PHARMACEUTICALS, priority 2022, published 2026)
# *1 amine or outer side, *2 acyl side, *3 side chain or, on linkers, in order; H or OH if unused. Where a SMILES comes first, the peptide text is derived from it. Side-chain parts run from the residue outwards. [ ]: non-standard residue; d: D form. The star is where a group is joined. γGlu = O=C(O)[C@H](CCC(=O)[*:2])N[*:1]; C14 diacid = O=C(O)CCCCCCCCCCCCC(=O)*; NMeI = CC[C@H](C)[C@H](NC)C(=O)O; Pentanoyl = CCCCC(=O)*; AEEA = NCCOCCOCC(=O)O; Aib = CC(C)(N)C(=O)O
# Experiments:
# [1] = biological target: T1, human CRF2a receptor (Homo sapiens, UniProt Q13324); assay: Activity at human CRF2a receptor, cAMP functional assay in TeloHEAC cells; type: cell-based; details: TeloHEAC cells stably expressing human CRF2a receptor, relative to urocortin 2 (100 nM = 100%)
# T1 construct: expressed in transfected cells; host or cells: TeloHEAC cells
# T1 sequence (Q13324 1-411): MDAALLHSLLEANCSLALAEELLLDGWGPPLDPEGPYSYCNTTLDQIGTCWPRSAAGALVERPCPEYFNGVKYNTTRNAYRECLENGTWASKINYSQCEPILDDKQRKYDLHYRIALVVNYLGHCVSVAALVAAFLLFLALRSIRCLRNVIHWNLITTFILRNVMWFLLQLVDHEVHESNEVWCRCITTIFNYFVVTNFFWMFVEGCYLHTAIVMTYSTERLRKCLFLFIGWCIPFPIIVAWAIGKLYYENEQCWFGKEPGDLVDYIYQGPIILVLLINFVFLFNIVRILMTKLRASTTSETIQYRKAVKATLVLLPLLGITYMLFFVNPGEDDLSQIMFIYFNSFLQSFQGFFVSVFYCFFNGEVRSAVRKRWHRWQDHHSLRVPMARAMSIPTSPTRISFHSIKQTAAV
# Method in brief: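 TeloHEAC cells stably expressing human CRF2a (10000 cells/well) were treated with 16-point 1:2 compound dilutions in HBSS/20 mM HEPES with IBMX for 30 min at 37° C. cAMP was read by HTRF (665/620 nm ratio). EC50 was the concentration giving 50% activation, with 100 nM urocortin 2 set as 100%.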
# [2] = biological target: T2, CFR1R receptor (Homo sapiens, UniProt P34998); assay: Activity at anti-target CFR1R receptor, cAMP assay in CRF1R-overexpression CHO-K1 cells; type: cell-based; details: 100% = Sauvagine at 100 nM; for EC50: cAMP
# T2 construct: host or cells: CHO-K1 (clone 2)
# T2 sequence (P34998 24-415): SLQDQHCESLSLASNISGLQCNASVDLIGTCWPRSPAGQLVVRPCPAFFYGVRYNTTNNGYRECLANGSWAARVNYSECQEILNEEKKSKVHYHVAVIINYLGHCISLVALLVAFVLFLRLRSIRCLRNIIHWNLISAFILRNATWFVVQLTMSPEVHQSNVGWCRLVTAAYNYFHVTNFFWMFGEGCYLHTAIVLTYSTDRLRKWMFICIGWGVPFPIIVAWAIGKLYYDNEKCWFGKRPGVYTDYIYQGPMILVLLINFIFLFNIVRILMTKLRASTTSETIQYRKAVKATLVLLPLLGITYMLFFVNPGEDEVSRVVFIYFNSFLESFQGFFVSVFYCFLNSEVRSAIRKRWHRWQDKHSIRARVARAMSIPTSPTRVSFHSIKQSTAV
# Method in brief: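 Grow clone 2 to near confluence at 37° C. under 5% CO2 in F12 (Hams) with 10% FBS and G418, harvest, and freeze in 10% DMSO. Thaw and plate at 4000 cells/well. Then proceed per the TeloHAEC method, normalising to Sauvagine 100 nM as maximum.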
EC50 [1] [nM],Emax (% I) [2] [% I],EC50 [2] [nM],Compound
0.99,8,> 250,CC[C@H](C)[C@H](NC)C(=O)N[C@H](C(=O)N[C@@H](CC(C)C)C(=O)N[C@@H](CO)C(=O)N[C@@H](CC(C)C)C(=O)N[C@@H](CC(=O)O)C(=O)N[C@@H](C(=O)N1CCC[C@H]1C(=O)N[C@H](C(=O)N[C@@H](CCCCN)C(=O)N[C@@H](CC(C)C)C(=O)N[C@@H](CCCCNC(=O)CC[C@H](NC(=O)CCCCCCCCCCCCC(=O)O)C(=O)O)C(=O)N[C@@H](CCCCN)C(=O)N[C@H](C(=O)N[C@@H](CC(C)C)C(=O)N[C@@H](CC(C)C)C(=O)N[C@@H](CCC(=O)O)C(=O)N[C@@H](CCC(N)=O)C(=O)N[C@@H](CCC(=O)O)C(=O)N[C@@H](CCCCN)C(=O)N[C@@H](CCC(N)=O)C(=O)N[C@@H](CCCCN)C(=O)N[C@@H](C)C(=O)N[C@@H](CCC(N)=O)C(=O)N[C@@H](CCCNC(=N)N)C(=O)N[C@@H](CCC(=O)O)C(=O)N[C@@H](CCC(N)=O)C(=O)N[C@@H](C)C(=O)N[C@@H](CCC(=O)O)C(=O)N[C@H](C(=O)N[C@@H](CC(N)=O)C(=O)NC(C)(C)C(=O)N[C@@H](CCC(N)=O)C(=O)N[C@H](C(=O)N[C@@H](CC(C)C)C(=O)N[C@@H](C)C(=O)N[C@@H](CCC(N)=O)C(=O)N[C@H](C(N)=O)C(C)C)[C@@H](C)CC)[C@@H](C)O)[C@@H](C)CC)[C@@H](C)CC)C(C)C)C(C)C [compound 176] (H-[NMeI]VLSLD[dV]PIKLK([γGlu-C14 diacid])KILLEQEKQKAQREQAETN[Aib]QILAQV-NH2)
0.86,10,> 250,CC[C@H](C)[C@H](NC)C(=O)N[C@H](C(=O)N[C@@H](CC(C)C)C(=O)N[C@@H](CO)C(=O)N[C@@H](CC(C)C)C(=O)N[C@@H](CC(=O)O)C(=O)N[C@@H](C(=O)N1CCC[C@H]1C(=O)N[C@H](C(=O)N[C@@H](CCCCN)C(=O)N[C@@H](CC(C)C)C(=O)N[C@@H](CCCCNC(=O)CC[C@H](NC(=O)CCCCCCCCCCCCC(=O)O)C(=O)O)C(=O)N[C@@H](CCCCN)C(=O)N[C@H](C(=O)N[C@@H](CC(C)C)C(=O)N[C@@H](CC(C)C)C(=O)N[C@@H](CCC(=O)O)C(=O)N[C@@H](CCC(N)=O)C(=O)N[C@@H](CCC(=O)O)C(=O)N[C@@H](CCCCN)C(=O)N[C@@H](CCC(N)=O)C(=O)N[C@@H](CCCCN)C(=O)NC(C)(C)C(=O)N[C@@H](CCC(N)=O)C(=O)N[C@@H](CCCNC(=N)N)C(=O)N[C@@H](CCC(=O)O)C(=O)N[C@@H](CCC(N)=O)C(=O)N[C@@H](C)C(=O)N[C@@H](CCC(=O)O)C(=O)N[C@H](C(=O)N[C@@H](CC(N)=O)C(=O)NC(C)(C)C(=O)N[C@@H](CCC(N)=O)C(=O)N[C@H](C(=O)N[C@@H](CC(C)C)C(=O)N[C@@H](C)C(=O)N[C@@H](CCC(N)=O)C(=O)N[C@H](C(N)=O)C(C)C)[C@@H](C)CC)[C@@H](C)O)[C@@H](C)CC)[C@@H](C)CC)C(C)C)C(C)C [compound 177] (H-[NMeI]VLSLD[dV]PIKLK([γGlu-C14 diacid])KILLEQEKQK[Aib]QREQAETN[Aib]QILAQV-NH2)
6.5,1,> 250,CC[C@H](C)[C@H](NC)C(=O)N[C@H](C(=O)N[C@@H](CC(C)C)C(=O)N[C@@H](CO)C(=O)N[C@@H](CC(C)C)C(=O)N[C@@H](CC(=O)O)C(=O)N[C@@H](C(=O)N1CCC[C@H]1C(=O)N[C@H](C(=O)N[C@@H](CCCCN)C(=O)N[C@@H](CC(C)C)C(=O)N[C@@H](CCCCNC(=O)COCCOCCNC(=O)COCCOCCNC(=O)CC[C@H](NC(=O)CCCCCCCCCCCCC(=O)O)C(=O)O)C(=O)N[C@@H](CCCCN)C(=O)N[C@H](C(=O)N[C@@H](CC(C)C)C(=O)N[C@@H](CC(C)C)C(=O)N[C@@H](CCC(=O)O)C(=O)N[C@@H](CCC(N)=O)C(=O)N[C@@H](CCC(=O)O)C(=O)N[C@@H](CCCCN)C(=O)N[C@@H](CCC(N)=O)C(=O)N[C@@H](CCCCN)C(=O)N[C@@H](CCCCN)C(=O)N[C@@H](CCC(N)=O)C(=O)N[C@@H](CCCNC(=N)N)C(=O)N[C@@H](CCC(=O)O)C(=O)N[C@@H](CCC(N)=O)C(=O)N[C@@H](C)C(=O)N[C@@H](CCC(=O)O)C(=O)N[C@H](C(=O)N[C@@H](CC(N)=O)C(=O)NC(C)(C)C(=O)N[C@@H](CCC(N)=O)C(=O)N[C@H](C(=O)N[C@@H](CC(C)C)C(=O)N[C@@H](C)C(=O)N[C@@H](CCC(N)=O)C(=O)N[C@H](C(N)=O)C(C)C)[C@@H](C)CC)[C@@H](C)O)[C@@H](C)CC)[C@@H](C)CC)C(C)C)C(C)C [compound 178] (H-[NMeI]VLSLD[dV]PIKLK([AEEA-AEEA-γGlu-C14 diacid])KILLEQEKQKKQREQAETN[Aib]QILAQV-NH2)
15.5,−4,> 250,CC[C@H](C)[C@H](NC)C(=O)N[C@H](C(=O)N[C@@H](CC(C)C)C(=O)N[C@@H](CO)C(=O)N[C@@H](CC(C)C)C(=O)N[C@@H](CC(=O)O)C(=O)N[C@@H](C(=O)N1CCC[C@H]1C(=O)N[C@H](C(=O)N[C@@H](CCCCN)C(=O)N[C@@H](CC(C)C)C(=O)N[C@@H](CCCCNC(=O)COCCOCCNC(=O)COCCOCCNC(=O)CC[C@H](NC(=O)CC[C@H](NC(=O)CCCCCCCCCCCCC(=O)O)C(=O)O)C(=O)O)C(=O)N[C@@H](CCCCN)C(=O)N[C@H](C(=O)N[C@@H](CC(C)C)C(=O)N[C@@H](CC(C)C)C(=O)N[C@@H](CCC(=O)O)C(=O)N[C@@H](CCC(N)=O)C(=O)N[C@@H](CCC(=O)O)C(=O)N[C@@H](CCCCN)C(=O)N[C@@H](CCC(N)=O)C(=O)N[C@@H](CCCCN)C(=O)N[C@@H](CCCCN)C(=O)N[C@@H](CCC(N)=O)C(=O)N[C@@H](CCCNC(=N)N)C(=O)N[C@@H](CCC(=O)O)C(=O)N[C@@H](CCC(N)=O)C(=O)N[C@@H](C)C(=O)N[C@@H](CCC(=O)O)C(=O)N[C@H](C(=O)N[C@@H](CC(N)=O)C(=O)NC(C)(C)C(=O)N[C@@H](CCC(N)=O)C(=O)N[C@H](C(=O)N[C@@H](CC(C)C)C(=O)N[C@@H](C)C(=O)N[C@@H](CCC(N)=O)C(=O)N[C@H](C(N)=O)C(C)C)[C@@H](C)CC)[C@@H](C)O)[C@@H](C)CC)[C@@H](C)CC)C(C)C)C(C)C [compound 179] (H-[NMeI]VLSLD[dV]PIKLK([AEEA-AEEA-γGlu-γGlu-C14 diacid])KILLEQEKQKKQREQAETN[Aib]QILAQV-NH2)
10.7,2,> 250,CCCCC(=O)N[C@H](C(=O)N[C@@H](CC(C)C)C(=O)N[C@@H](CO)C(=O)N[C@@H](CC(C)C)C(=O)N[C@@H](CC(=O)O)C(=O)N[C@@H](C(=O)N1CCC[C@H]1C(=O)N[C@H](C(=O)N[C@@H](CCCCN)C(=O)N[C@@H](CC(C)C)C(=O)N[C@@H](CCCCNC(=O)COCCOCCNC(=O)COCCOCCNC(=O)CC[C@H](NC(=O)CCCCCCCCCCCCC(=O)O)C(=O)O)C(=O)N[C@@H](CCCCN)C(=O)N[C@H](C(=O)N[C@@H](CC(C)C)C(=O)N[C@@H](CC(C)C)C(=O)N[C@@H](CCC(=O)O)C(=O)N[C@@H](CCC(N)=O)C(=O)N[C@@H](CCC(=O)O)C(=O)N[C@@H](CCCCN)C(=O)N[C@@H](CCC(N)=O)C(=O)N[C@@H](CCCCN)C(=O)N[C@@H](CCCCN)C(=O)N[C@@H](CCC(N)=O)C(=O)N[C@@H](CCCNC(=N)N)C(=O)N[C@@H](CCC(=O)O)C(=O)N[C@@H](CCC(N)=O)C(=O)N[C@@H](C)C(=O)N[C@@H](CCC(=O)O)C(=O)N[C@H](C(=O)N[C@@H](CC(N)=O)C(=O)NC(C)(C)C(=O)N[C@@H](CCC(N)=O)C(=O)N[C@H](C(=O)N[C@@H](CC(C)C)C(=O)N[C@@H](C)C(=O)N[C@@H](CCC(N)=O)C(=O)N[C@H](C(N)=O)C(C)C)[C@@H](C)CC)[C@@H](C)O)[C@@H](C)CC)[C@@H](C)CC)C(C)C)C(C)C [compound 180] (Pentanoyl-VLSLD[dV]PIKLK([AEEA-AEEA-γGlu-C14 diacid])KILLEQEKQKKQREQAETN[Aib]QILAQV-NH2)
